Experimental data published in ChEMBL document CHEMBL5727793, “Covalent inhibitors of PAD4” (2020).

Assay: RapidFire Mass Spectrometry (RFMS) Activity Assay: Compounds were solubilized in 100% DMSO to achieve 100 mM final compound concentration. Compound stock solutions were stored at RT. A series of dilutions were prepared in DMSO and mixed 8 times with 20 μL mixing volume. […] After 5 mins, 10 μL of 100 μM of substrate in buffer (100 mM Tris-HCl pH 7.6, 2 mM DTT, 2 mM CaCl2) was added and the reaction incubated for 60 mins at 37° C. The enzymatic reaction was quenched by addition of 40 μl of 5% TCA in ACN (1.7% TCA final concentration) stop solution. Arginine containing substrate and citrulline containing product (+1 Da mass shift) were subjected to solid phase extraction on Agilent RapidFire (RF) 300 system and detected on a coupled, triple quadrupole Agilent 6460 QQQ mass spectrometry (MS) device under application of multiple reaction monitoring (MRM) for quantitation.

IC50	Structure (SMILES)
> 10 µM	CN(C)C/C=C/C(=O)N[C@H]1CCN(C(=O)c2ccc3c(c2)nc(-c2cc4cccnc4n2CC2CC2)n3C)C[C@H]1N
> 10 µM	CN(C)C/C=C/C(=O)N[C@@H]1C[C@H](N)CN(C(=O)c2ccc3c(c2)nc(-c2cc4cccnc4n2CC2CC2)n3C)C1
